Values quoted from earlier work, collected in patent US20040005304A1, “Novel compositions and methods for treating neurological disorders and associated gastrointestinal conditions” (MAK Wood, Inc., priority 2002, published 2004).

Test system: DPPIV
Conditions: cultured mouse intestinal wall cells (enterocyte cells)

In the case of `O=C[C@H](O)[C@@H](O)[C@@H](O)[C@H](O)CO` [galactose], the “expression of DPPIV” value is listed as “increase the expression of DPPIV”.
